Data from patent US8486996B2, “Aroylfuranes and aroylthiophenes” (Basilea Pharmaceutica AG, priority 2006, dated 2013).
Read-outs that look alike come from different tables or passages of the source.

Experiments:
[1] = Mitochondrial membrane potential, JC-1 (read-out 48 h); assay type: cell-based; settings: PBL, JC-1, 48 h
Summary of the method: (§1)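 Tumor cells were treated with test compounds (adherent cells after 24 h of attachment, suspension cells immediately), medium holding up to 5% DMSO. After 48 h, JC-1 (2-5 μg/ml in added medium) was applied for 30 min. Fluorescence microscopy (FITC/TRITC filters) scored the fraction of cells with dissipated mitochondrial membrane potential as categories A-D.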

tumor cells [2] = assay: as above; assay type: cell-based; settings: JC-1, 48 h
Summary of the method: as §1

[3] = Hoechst 33342 nuclear staining (48 h read-out); assay type: cell-based
Summary of the method: (§2)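 Adherent cells pre-spread 24 h before dosing, suspension cells dosed at seeding; compounds at 0.001 μM-10 μM final, 48 h at culture conditions. Hoechst 33342 (2-5 μg/ml) added for 30 min, then fluorescence microscopy scoring of apoptotic nuclear fraction and apoptosis-specific morphology, reported as scores A-D.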

tumor cells [4] = assay: Hoechst 33342 nuclear staining (48 h read-out); assay type: cell-based
Summary of the method: as §2

HeLa = assay: Colony Forming Units (read-out 6 days), HeLa; assay type: cell-based, human; settings: colonies containing more than 30 cells, read-out: Colony Forming Units, score based on IC50, HeLa
Protocol: (§3) Appropriate numbers of cells (100-150 cells, dependent on the cell type) are being seeded out in 1 ml complete medium into 6-well plates and allowed to attach for 48 h. The compounds are added after 48 h in 500 μl solution. The concentrations are in the range of 0.001 μM-3 μM. Control plates receive the same volume of medium containing the appropriate amount of DMSO. The plates are incubated for 5-7 days at cell culture conditions and subsequently scored for growth of colonies (containing more than 30 cells) by using a microscope.

[5] = MTS proliferation assay (72 h read-out); assay type: cell-based; settings: MRC5 cells
Summary of the method: (§4)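 Tumour cells (1.5×10^3–10^4 per well) were seeded 24 h before compound addition, then exposed to 0.001–10 μM final compound for 72 h under culture conditions. MTS reagent was added for a further 3 h, absorbance was read at 492 nm, and results were binned into scores A–D.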

tumor cells [6] = assay: MTS proliferation assay (72 h read-out); assay type: cell-based
Summary of the method: as §4

H460 = assay: Colony Forming Units (read-out 6 days), H460; assay type: cell-based, human; settings: colonies containing more than 30 cells, read-out: Colony Forming Units, score based on IC50, H460
Protocol: as §3

[7] = Homo sapiens, HeLa cells, read-out: Mitochondrial membrane potential (read-out 48 h) HeLa
[8] = Homo sapiens, Jurkat cells, read-out: Mitochondrial membrane potential (read-out 48 h) Jurkat
[9] = Homo sapiens, MCF7 cells, read-out: Mitochondrial membrane potential (read-out 48 h) MCF7
[10] = Jily cells, read-out: Mitochondrial membrane potential (read-out 48 h) Jily
[11] = Homo sapiens, MRC5 cells, read-out: Hoechst 33342 nuclear staining EC50, MRC5
[12] = PBL, read-out: Hoechst 33342 nuclear staining EC50, PBL
[13] = Homo sapiens, HeLa cells, read-out: Hoechst 33342 nuclear staining EC50, HeLa
[14] = Homo sapiens, Jurkat cells, read-out: Hoechst 33342 nuclear staining EC50, Jurkat
[15] = Jily cells, read-out: Hoechst 33342 nuclear staining EC50, Jily
[16] = Homo sapiens, HT-1080, HT1080 cells, read-out: MTS proliferation assay IC50, HT1080
[17] = Homo sapiens, HeLa cells, read-out: MTS proliferation assay IC50, HeLa
[18] = Homo sapiens, Jurkat cells, read-out: MTS proliferation assay IC50, Jurkat
[19] = Jily cells, read-out: MTS proliferation assay IC50, Jily
[20] = HeLa cells, read-out: Mitochondrial membrane potential (read-out 48 h) HeLa
[21] = Jurkat cells, read-out: Mitochondrial membrane potential (read-out 48 h) Jurkat
[22] = MCF7 cells, read-out: Mitochondrial membrane potential (read-out 48 h) MCF7
[23] = MRC5 cells, read-out: Hoechst 33342 nuclear staining EC50, MRC5
[24] = HeLa cells, read-out: Hoechst 33342 nuclear staining EC50, HeLa
[25] = Jurkat cells, read-out: Hoechst 33342 nuclear staining EC50, Jurkat
[26] = HT1080 cells, read-out: MTS proliferation assay IC50, HT1080
[27] = HeLa cells, read-out: MTS proliferation assay IC50, HeLa
[28] = Jurkat cells, read-out: MTS proliferation assay IC50, Jurkat

With `CCOc1ccc([N+](=O)[O-])cc1C(=O)c1oc2ccc(Cl)cc2c1N` [Example 3, 3-Amino-5-chloro-2-(2-ethoxy-5-nitrobezoyl)-benzofuran] the EC50 [1] was greater than 1000 nM, the EC50 (tumor cells [2]; [7]) was less than 10 nM and the EC50 (tumor cells [2]; [8]) was less than 10 nM. For the same compound, the EC50 (tumor cells [2]; [9]) was 10 to 100 nM, the EC50 (tumor cells [2]; [10]) was less than 10 nM and the EC50 [3, 11] was less than 10 nM. It also gave an EC50 [3, 12] greater than 1000 nM, an EC50 (tumor cells [4]; [13]) of less than 10 nM and an EC50 (tumor cells [4]; [14]) of less than 10 nM. It also gave an EC50 (tumor cells [4]; [15]) of less than 10 nM, an IC50 (HeLa; Homo sapiens, 144 h) of less than 10 nM and an IC50 ([5]; Homo sapiens) of less than 10 nM. It also gave an IC50 (tumor cells [6]; [16]) of less than 10 nM, an IC50 (tumor cells [6]; [17]) of less than 10 nM and an IC50 (tumor cells [6]; [18]) of less than 10 nM. The IC50 (tumor cells [6]; [19]) was less than 10 nM and the IC50 (H460; Homo sapiens, NCI-H460, 144 h) was less than 10 nM.
With `COc1ccc2oc(C(=O)c3cc(F)ccc3N3CCOCC3)cc2c1` [Example 38, 2-(5-Fluoro-2-morpholinobenzoyl)-5-methoxybenzofuran] the EC50 [1] was greater than 1000 nM, the EC50 (tumor cells [2]; [7]) was 10 to 100 nM and the EC50 (tumor cells [2]; [8]) was 10 to 100 nM. It also gave an EC50 (tumor cells [2]; [9]) of 10 to 100 nM, an EC50 (tumor cells [2]; [10]) of 10 to 100 nM and an EC50 [3, 11] of 10 to 100 nM. The EC50 [3, 12] was greater than 1000 nM, the EC50 (tumor cells [4]; [13]) was 10 to 100 nM and the EC50 (tumor cells [4]; [14]) was less than 10 nM. For the same compound, the EC50 (tumor cells [4]; [15]) was less than 10 nM, the IC50 (HeLa; Homo sapiens, 144 h) was less than 10 nM and the IC50 ([5]; Homo sapiens) was 10 to 100 nM. For the same compound, the IC50 (tumor cells [6]; [16]) was 10 to 100 nM, the IC50 (tumor cells [6]; [17]) was 10 to 100 nM and the IC50 (tumor cells [6]; [18]) was 10 to 100 nM. For the same compound, the IC50 (tumor cells [6]; [19]) was 10 to 100 nM and the IC50 (H460; Homo sapiens, NCI-H460, 144 h) was less than 10 nM.
`C=CCOc1ccc(OC)cc1C(=O)c1oc2ccc(Cl)cc2c1N` [Example 4, 3-Amino-5-chloro-2-(2-allyloxy-5-methoxybenzoyl)-benzofuran] showed an EC50 [1] greater than 1000 nM, an EC50 (tumor cells [2]; [7]) of 10 to 100 nM and an EC50 (tumor cells [2]; [8]) of 10 to 100 nM. The EC50 (tumor cells [2]; [9]) was 10 to 100 nM, the EC50 (tumor cells [2]; [10]) was 10 to 100 nM and the EC50 [3, 11] was 10 to 100 nM. It also gave an EC50 [3, 12] greater than 1000 nM, an EC50 (tumor cells [4]; [13]) of 10 to 100 nM and an EC50 (tumor cells [4]; [14]) of 10 to 100 nM. For the same compound, the EC50 (tumor cells [4]; [15]) was 10 to 100 nM, the IC50 (HeLa; Homo sapiens, 144 h) was 10 to 100 nM and the IC50 (H460; Homo sapiens, NCI-H460, 144 h) was 10 to 100 nM.
`COc1ccc2oc(C(=O)c3cc(F)ccc3N3CCCCC3)cc2c1` [Example 96] showed an EC50 [1] greater than 1000 nM, an EC50 (tumor cells [2]; [20]) of 10 to 100 nM and an EC50 (tumor cells [2]; [10]) of 10 to 100 nM. The EC50 (tumor cells [2]; [21]) was 10 to 100 nM, the EC50 (tumor cells [2]; [22]) was 10 to 100 nM and the EC50 [3, 23] was 100 to 1000 nM. It also gave an EC50 [3, 12] greater than 1000 nM, an EC50 (tumor cells [4]; [24]) of 100 to 1000 nM and an EC50 (tumor cells [4]; [15]) of 100 to 1000 nM. It also gave an EC50 (tumor cells [4]; [25]) of 100 to 1000 nM, an IC50 (HeLa) of 10 to 100 nM and an IC50 (H460) of 10 to 100 nM.
`Nc1c(C(=O)c2cc(F)ccc2N2CCOCC2)oc2ccc(Cl)cc12` [Example 93] gave an EC50 [1] greater than 1000 nM, an EC50 (tumor cells [2]; [20]) of 10 to 100 nM and an EC50 (tumor cells [2]; [10]) of 100 to 1000 nM. It also gave an EC50 (tumor cells [2]; [21]) of 10 to 100 nM, an EC50 (tumor cells [2]; [22]) of 100 to 1000 nM and an EC50 [3, 23] of 10 to 100 nM. For the same compound, the EC50 [3, 12] was greater than 1000 nM, the EC50 (tumor cells [4]; [24]) was 10 to 100 nM and the EC50 (tumor cells [4]; [15]) was 10 to 100 nM. For the same compound, the EC50 (tumor cells [4]; [25]) was 10 to 100 nM, the IC50 [5] was 10 to 100 nM and the IC50 (tumor cells [6]; [26]) was 10 to 100 nM. The IC50 (tumor cells [6]; [27]) was 10 to 100 nM, the IC50 (tumor cells [6]; [19]) was 10 to 100 nM and the IC50 (tumor cells [6]; [28]) was 100 to 1000 nM.
`CCOc1ccc(F)cc1C(=O)c1cc2cc(OC(=O)N(C)C)ccc2o1` [Example 72] gave an EC50 [1] greater than 1000 nM, an EC50 (tumor cells [2]; [20]) greater than 1000 nM and an EC50 (tumor cells [2]; [10]) of 100 to 1000 nM. The EC50 (tumor cells [2]; [21]) was 100 to 1000 nM, the EC50 (tumor cells [2]; [22]) was greater than 1000 nM and the EC50 [3, 23] was greater than 1000 nM. The EC50 [3, 12] was greater than 1000 nM, the EC50 (tumor cells [4]; [24]) was greater than 1000 nM and the EC50 (tumor cells [4]; [15]) was 100 to 1000 nM. For the same compound, the EC50 (tumor cells [4]; [25]) was 100 to 1000 nM, the IC50 [5] was 100 to 1000 nM and the IC50 (tumor cells [6]; [26]) was 100 to 1000 nM. The IC50 (tumor cells [6]; [27]) was 100 to 1000 nM and the IC50 (tumor cells [6]; [19]) was 100 to 1000 nM.
`CC1CCCN(c2ccc(F)cc2C(=O)c2oc3ccc(Cl)cc3c2N)C1` (stereo not drawn) [Example 104] showed an EC50 [1] greater than 1000 nM, an EC50 (tumor cells [2]; [20]) of 100 to 1000 nM and an EC50 (tumor cells [2]; [10]) of 100 to 1000 nM. For the same compound, the EC50 (tumor cells [2]; [21]) was 100 to 1000 nM, the EC50 (tumor cells [2]; [22]) was 100 to 1000 nM and the EC50 [3, 23] was 100 to 1000 nM. It also gave an EC50 [3, 12] greater than 1000 nM, an EC50 (tumor cells [4]; [24]) of 100 to 1000 nM and an EC50 (tumor cells [4]; [15]) of 100 to 1000 nM. The EC50 (tumor cells [4]; [25]) was 100 to 1000 nM, the IC50 [5] was 100 to 1000 nM and the IC50 (tumor cells [6]; [26]) was 100 to 1000 nM. It also gave an IC50 (tumor cells [6]; [27]) of 100 to 1000 nM, an IC50 (tumor cells [6]; [19]) of 100 to 1000 nM and an IC50 (tumor cells [6]; [28]) of 100 to 1000 nM.
